{"source": "patent US10183944B2", "about": "(Asana Biosciences, LLC, priority 2011, dated 2019)", "test_system": "Collagen Induced Arthritis (CIA) in female Lewis rats", "assay": "In vivo chronic study: Collagen Induced Arthritis (CIA)", "design": "species or system rat", "conditions": "2 × 30 mg/Kg", "excerpt": "Collagen Induced Arthritis (CIA) is a well characterized model of human rheumatoid arthritis (RA) that can be induced in susceptible animals following immunization with type II collagen (cII) in Freund's adjuvant. […] Pathophysiology of CIA consists of T cell component, as evidenced by increased infiltration of T-cells in joint synovium and also, by attenuation of CIA in T-cell deficient mice. CIA development involves B cell component too, as is evidenced by circulating cII antibody in disease animals and also, failure to develop the disease in xid mice/B cell deficient mice/CXCR5 null mice. […] See, Pine, “Inflammation and bone erosion are suppressed in models of rheumatoid arthritis following treatment with a novel Syk inhibitor”, Clin. Immunol., 2007, 124(3):244-57; Xiong cha, “Suppression of the onset and progression of collagen-induced arthritis in rats by QFGJS, a preparation from an anti-arthritic Chinese herbal formula”, J. Ethnopharmacology (2007) 110:39-48; and Stolina, “The evolving systemic and local biomarker milieu at different stages of disease progression in rat collagen induced arthritis”, Biomarkers (2008) 13(7-8):692-712, which are herein incorporated by reference.\nFemale Lewis rats (8 per group, 6-8 weeks old) were immunized on day 1 with type II collagen (Immunization grade Bovine type II; Chondrex; Cat #20021) emulsified with Complete Freund's Adjuvant (Sigma; Cat# F5881) at a final concentration of 1.2 mg/mL). For the initial immunization, the animals were injected at the base of the tail with 300 μg of the cII (0.25 mL/rat). A booster injection of the same type II collagen emulsified with Incomplete Freund's Adjuvant (Sigma, Cat #F5506) (0.25 mL/rat) was given to the animals on day 8 at the base of the tail (100 μg). The final cII concentration in the booster was […].\nAnimals with an arthritic score of ≥1 were grouped and dosing with test compound (30 mg/kg bid) or methotrexate (0.5 mg/kg) started between about day 12 to day 14, with daily dosing of their respective compounds continuing for 10 days.\nEdema: Paw volumes are measured by Plethysmometry for the animals before induction of CIA (Basal readings) and on Day 1, 3, 6 and 9 of dosing period. Both hind paw volumes were measured and edema was calculated by subtracting from the basal mean.\nArthritic score: Animals were scored for the symptoms of arthritis every day starting from Day of onset of disease till the end of the study. Both the hind paws were scored and the total scores were averaged and compared with control. The scoring pattern was as follows:\nThe percent inhibition of Edema was calculated with respect to control by the formula: […]\nThe percent inhibition of Arthritic score was calculated with respect to control by the formula: […]\nMeans of different groups were compared with control using one way ANOVA followed by Dunnett's test. Significance is represented as follows.", "note": "Marks after values point to notes of the source that are not given here.", "data": [{"smiles": "O=C(O)C1CC12CCN(c1ccc(Nc3nc(-c4ccccc4)nc4cn[nH]c(=O)c34)cc1)CC2", "note": "(stereo not shown) [Example 19, 6-(4-(5-oxo-2-phenyl-5,6-dihydropyrimido[4,5-d]pyridazin-4-ylamino)phenyl)-6-azaspiro[2.5]octane-1-carboxylic acid]", "values": [{"measurement": "Percent inhibition of Edema (Day 9 of dosing)", "result": "5**"}, {"measurement": "Percent inhibition of Arthritic score (Day 10 of dosing)", "result": "20*"}]}, {"smiles": "O=C(O)CC1CCN(c2ccc(Nc3nc(N4CCCCCC4)nc4cn[nH]c(=O)c34)cn2)CC1", "note": "[Example 108, 2-(1-(5-((2-(azepan-1-yl)-5-oxo-5,6-dihydropyrimido[4,5-d]pyridazin-4-yl)amino)pyridin-2-yl)piperidin-4-yl) acetic acid]", "values": [{"measurement": "Percent inhibition of Edema (Day 9 of dosing)", "result": "42***"}, {"measurement": "Percent inhibition of Arthritic score (Day 10 of dosing)", "result": "53***"}]}, {"smiles": "N#CCC1CCN(c2nc(Nc3ccc(N4CCC(O)CC4)cc3)c3c(=O)[nH]ncc3n2)CC1", "note": "[Example 189, 2-(1-(4-((4-(4-hydroxypiperidin-1-yl)phenyl)amino)-5-oxo-5,6-dihydropyrimido[4,5-d]pyridazin-2-yl)piperidin-4-yl)acetonitrile]", "values": [{"measurement": "Percent inhibition of Edema (Day 9 of dosing)", "result": "90***"}, {"measurement": "Percent inhibition of Arthritic score (Day 10 of dosing)", "result": "94***"}]}, {"smiles": "N#CCC1CCN(c2nc(Nc3ccc(N4CCN(CCO)CC4)cc3)c3c(=O)[nH]ncc3n2)CC1", "note": "[Example 191, 2-(1-(4-((4-(4-(2-hydroxyethyl)piperazin-1-yl)phenyl)amino)-5-oxo-5,6-dihydropyrimido[4,5-d]pyridazin-2-yl)piperidin-4-yl)acetonitrile]", "values": [{"measurement": "Percent inhibition of Edema (Day 9 of dosing)", "result": "90***"}, {"measurement": "Percent inhibition of Arthritic score (Day 10 of dosing)", "result": "100***"}]}, {"smiles": "O=C(O)C1CC12CCN(c1ccc(Nc3nc(N4CCCCCC4)nc4cn[nH]c(=O)c34)cc1)CC2", "note": "(stereo not shown) [Example 62, 6-(4-((2-(azepan-1-yl)-5-oxo-5,6-dihydropyrimido[4,5-d]pyridazin-4-yl)amino)phenyl)-6-azaspiro[2.5]octane-1-carboxylic acid]", "values": [{"measurement": "Percent inhibition of Edema (Day 9 of dosing)", "result": "69***"}, {"measurement": "Percent inhibition of Arthritic score (Day 10 of dosing)", "result": "81***"}]}]}
